Measured values: US10717757B2, “Ketolides having antibacterial activity” (BIOPHARMATI SA, priority 2016, dated 2020)
≈ marks a conversion by molar mass, not a printed value. Where two headings read alike, the source gives them in different places.

What was measured:
[1] = test system: S. pneumoniae ATCC 49619 (CLSI QC strain); assay: Minimum inhibitory concentration (MIC), broth microdilution, QC strain; format: cell-based, Streptococcus pneumoniae; details: MIC in duplicates
Method: (§1) Protocols for Determining Minimum Inhibitory Concentration (MIC) of Test Compounds Against Streptococcus Pneumoniae Strains
(§2) The test strains are revived from frozen stock on blood agar plates and incubated at 35±2° C. for 18-20 hours in 5% CO2. Colonies are directly suspended from an overnight grown agar culture in CAMHB/saline and optical density adjusted to 0.5 McFarland turbidity standard (1-2×10^8 cfu/mL). Adjusted cultures are further diluted 1:100 using CAMHB such that after inoculation each well finally contains ˜5×10^5 cfu/mL. For broth dilution testing of Streptococcus species, CAMHB is supplemented with 2.5-5% v/v LHB. Colony counts of inoculum suspension is estimated by ten-fold serial dilutions and plating each dilution on agar plate. After incubation, the plates are observed for growth and microbial counts determined.
(§3) Compounds are weighed and dissolved in water/DMSO/other solvent to yield 1 mg/mL stock solution. Serial two-fold dilutions of the test compounds and reference antibiotics are prepared. 50 μL of the diluted drug solutions are dispensed in wells of microtiter trays (96 well).
(§4) To each of the wells of the microtiter tray, 50 μL of the diluted organism are inoculated to obtain a final inoculum density of ˜5×10^5 cfu/mL. Broth control, compound control and organism control wells are set up.
(§5) MIC testing are done in duplicates
(§6) MIC is defined as the lowest concentration of an antimicrobial agent that prevents visible growth of a microorganism in broth dilution susceptibility test.
(§7) After incubation period, growth of organism in the wells are detected by unaided eye facilitated by a viewing device. The amount of growth in the drug-containing wells are compared with the amount of growth in the organism-control wells.

[2] = test system: S. pneumoniae AUCC479, macrolide & penicillin sensitive; assay: Minimum inhibitory concentration (MIC), broth microdilution, AUCC479; format: cell-based, Streptococcus pneumoniae
Method: as §1, §2, §3, §4, §5, §6, §7

[3] = test system: S. pneumoniae AUCC488, macrolide & penicillin resistant; assay: Minimum inhibitory concentration (MIC), broth microdilution, AUCC488; format: cell-based, Streptococcus pneumoniae
Method: as §1, §2, §3, §4, §5, §6, §7

[4] = test system: S. pneumoniae AUCC489, macrolide & penicillin resistant; assay: Minimum inhibitory concentration (MIC), broth microdilution, AUCC489; format: cell-based, Streptococcus pneumoniae
Method: as §1, §2, §3, §4, §5, §6, §7

[5] = test system: S. pneumoniae AUCC483, macrolide resistant & penicillin sensitive; assay: Minimum inhibitory concentration (MIC), broth microdilution, AUCC483; format: cell-based, Streptococcus pneumoniae
Method: as §1, §2, §3, §4, §5, §6, §7

CYP3A4 = CYP3A4 (Homo sapiens, UniProt P08684); assay: Cytochrome P4503A4 inhibition assay, human liver microsomes, LC-MS/MS probe substrate method; details: for IC50: human liver microsomes 0.1 mg/mL, 10 min; for CYP3A4 inhibition in comparison with solithromycin and ketoconazole: summary of Table 1
Chain of CYP3A4 (P08684 whole entry): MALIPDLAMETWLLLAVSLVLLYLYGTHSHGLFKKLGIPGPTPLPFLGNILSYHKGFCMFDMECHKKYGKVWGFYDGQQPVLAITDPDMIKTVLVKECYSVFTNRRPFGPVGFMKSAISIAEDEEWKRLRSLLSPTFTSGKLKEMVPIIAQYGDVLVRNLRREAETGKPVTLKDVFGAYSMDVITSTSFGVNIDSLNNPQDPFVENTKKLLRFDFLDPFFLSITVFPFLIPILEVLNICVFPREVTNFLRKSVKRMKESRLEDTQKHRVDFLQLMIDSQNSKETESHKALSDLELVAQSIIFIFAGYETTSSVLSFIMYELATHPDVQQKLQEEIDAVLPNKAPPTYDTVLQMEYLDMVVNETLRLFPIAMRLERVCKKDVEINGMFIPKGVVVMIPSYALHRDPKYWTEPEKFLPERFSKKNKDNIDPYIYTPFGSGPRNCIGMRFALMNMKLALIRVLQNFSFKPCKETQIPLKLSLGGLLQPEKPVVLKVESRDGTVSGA
Method: Cytochrome P4503A4 Inhibition Assay for Determining IC50
The potential of the compound to inhibit CYP 3A4 was tested by the LC-MS/MS based probe substrate method using human liver microsomes. Midazolam or testosterone, which are metabolized to hydroxymidazolam or hydroxytestosterone by CYP 3A4, were the probe substrates used. […] NADPH was added as the cofactor. […] After incubation for ten minutes, the amount of 1-hydroxymidazolam or 6β-hydroxyltestosterone formed was determined by LC-MS/MS method as a measure of enzyme activity. Percent inhibition of enzyme activity was calculated based on the amount of metabolites (1-hydroxymidazolam or 6β-hydroxyltestosterone) formed for each sample relative to the basal control and plotted in a curve versus the compound concentration to obtain the IC50.

[6] = read-out: IC50 CYP3A4 (testosterone), 50 μM testosterone
[7] = read-out: IC50 CYP3A4 (midazolam), 5 μM midazolam

| Compound | MIC Strep. Pneumoniae ATCC49619 QC strain [1] | MIC Strep. Pneumoniae AUCC 479 penS, macS [2] | MIC Strep. Pneumoniae AUCC 488 penR, macR M or iMLS [3] | MIC Strep. Pneumoniae AUCC 489 penR, macR cMLS [4] | MIC Strep. Pneumoniae AUCC 483 penS, macR cMLS [5] | IC50 (CYP3A4; [6]) | CYP3A4 inhibition in comparison with solithromycin and ketoconazole (CYP3A4) | IC50 (CYP3A4; [7]) | MIC ([1]; Streptococcus pneumoniae, ATCC49619 QC strain, read-out: MIC Strep. Pneumoniae ATCC49619 QC strain) |
| --- | --- | --- | --- | --- | --- | --- | --- | --- | --- |
| (3aS,4R,7R,9R,10R,11R,13R,15R,15aR)-1-[3-(azetidin-1-yl)propyl]-10-{[(2S,3R,4S,6R)-4-(dimethylamino)-3-hydroxy-6-methyloxan-2-yl]oxy}-4-ethyl-3a,7,9,11,13,15-hexamethyl-11-{[(2E)-3-(quinolin-3-yl)prop-2-en-1-yl]oxy}-tetradecahydro-1H-oxacyclotetradeca[4,3-d][1,3]oxazole-2,6,8,14-tetrone [Compound 13M] | 0.03 to 0.06 µg/mL | 0.015 to 0.03 µg/mL | 0.5 to 1 µg/mL | 0.25 to 0.5 µg/mL | 0.25 to 0.5 µg/mL | 10.3 µM | lower IC50 inhibition of CYP3A4 inhibition | – | – |
| CC[C@H]1OC(=O)[C@H](C)C(=O)[C@H](C)[C@@H](O[C@@H]2O[C@H](C)C[C@H](N(C)C)[C@H]2O)[C@](C)(OC/C=C/c2cnc3ccccc3c2)C[C@@H](C)C(=O)[C@H](C)[C@H]2N(CCOC)C(=O)O[C@]12C [Compound 13E, (3aS,4R,7R,9R,10R,11R,13R,15R,15aR)-10-{[(2S,3R,4S,6R)-4-(dimethylamino)-3-hydroxy-6-methyloxan-2-yl]oxy}-4-ethyl-1-(2-methoxyethyl)-3a,7,9,11,13,15-hexamethyl-11-{[(2E)-3-(quinolin-3-yl)prop-2-en-1-yl]oxy}-tetradecahydro-1H-oxacyclotetradeca[4,3-d][1,3]oxazole-2,6,8,14-tetrone] | 0.06 to 0.12 µg/mL | 0.03 to 0.06 µg/mL | 0.25 to 0.5 µg/mL | >4 µg/mL | >4 µg/mL | – | – | – | – |
| (3aS,4R,7R,9R,10R,11R,13R,15R,15aR)-10-{[(2S,3R,4S,6R)-4-(dimethylamino)-3-hydroxy-6-methyloxan-2-yl]oxy}-4-ethyl-1-{[(2S)-1-ethylpyrrolidin-2-yl]methyl}-3a,7,9,11,13,15-hexamethyl-11-{[(2E)-3-(quinolin-3-yl)prop-2-en-1-yl]oxy}-tetradecahydro-1H-oxacyclotetradeca[4,3-d][1,3]oxazole-2,6,8,14-tetrone [Compound 13C] | 0.06 to 0.12 µg/mL | 0.03 µg/mL | 0.5 µg/mL | 0.5 to 1 µg/mL | 0.5 to 1 µg/mL | – | lower IC50 inhibition of CYP3A4 inhibition | 1.8 µM | – |
| CCC1OC(=O)C(C)C(=O)C(C)C(OC2OC(C)CC(N(C)C)C2O)C(C)(OCC=Cc2cnc3ccccc3c2)CC(C)C(=O)C(C)C2N(CC3CCN(C)C3)C(=O)OC12C [Compound 13N, (3aS,4R,7R,9R,10R,11R,13R,15R,15aR)-10-{[(2S,3R,4S,6R)-4-(dimethylamino)-3-hydroxy-6-methyloxan-2-yl]oxy}-4-ethyl-3a,7,9,11,13,15-hexamethyl-1-{[(3S)-1-methylpyrrolidin-3-yl]methyl}-11-{[(2E)-3-(quinolin-3-yl)prop-2-en-1-yl]oxy}-tetradecahydro-1H-oxacyclotetradeca[4,3-d][1,3]oxazole-2,6,8,14-tetrone] | 0.03 to 0.06 µg/mL | 0.03 µg/mL (≈ 0.0348 µM) | 0.5 to 1 µg/mL | 0.5 to 1 µg/mL | 0.5 to 1 µg/mL | 7.7 µM | lower IC50 inhibition of CYP3A4 inhibition | – | – |
| (3aS,4R,7R,9R,10R,11R,13R,15R,15aR)-10-{[(2S,3R,4S,6R)-4-(dimethylamino)-3-hydroxy-6-methyloxan-2-yl]oxy}-4-ethyl-3a,7,9,11,13,15-hexamethyl-1-{2-[(2S)-1-methylpyrrolidin-2-yl]ethyl}-11-{[(2E)-3-(quinolin-3-yl)prop-2-en-1-yl]oxy}-tetradecahydro-1H-oxacyclotetradeca[4,3-d][1,3]oxazole-2,6,8,14-tetrone [Compound 13Q] | 0.03 to 0.06 µg/mL | 0.015 to 0.03 µg/mL | 0.5 to 1 µg/mL | 0.12 to 0.25 µg/mL | 0.12 to 0.25 µg/mL | 4.8 µM | lower IC50 inhibition of CYP3A4 inhibition | – | – |
| (3aS,4R,7R,9R,10R,11R,13R,15R,15aR)-10-{[(2S,3R,4S,6R)-4-(dimethylamino)-3-hydroxy-6-methyloxan-2-yl]oxy}-4-ethyl-3a,7,9,11,13,15-hexamethyl-1-[2-(4-methylpiperazin-1-yl)ethyl]-11-{[(2E)-3-(quinolin-3-yl)prop-2-en-1-yl]oxy}-tetradecahydro-1H-oxacyclotetradeca[4,3-d][1,3]oxazole-2,6,8,14-tetrone [Compound 13K] | 0.06 to 0.12 µg/mL | 0.03 to 0.06 µg/mL | 1 µg/mL | 0.5 to 1 µg/mL | 0.5 to 1 µg/mL | – | lower IC50 inhibition of CYP3A4 inhibition | 6.5 µM | – |
| CC[C@H]1OC(=O)[C@H](C)[C@@H](O[C@H]2C[C@@](C)(OC)[C@@H](O)[C@H](C)O2)[C@H](C)[C@@H](O[C@@H]2O[C@H](C)C[C@H](N(C)C)[C@H]2O)[C@](C)(O)C[C@@H](C)C(=O)[C@H](C)[C@@H](O)[C@]1(C)O [erythromycin, reference compound] | – | 0.03 to 0.06 µg/mL | 8 to 16 µg/mL | 8 to 32 µg/mL | 64 µg/mL (≈ 87.2 µM) | – | – | – | 0.03 to 0.06 µg/mL (≈ 0.0409 to 0.0818 µM) |
| (3aS,4R,7R,9R,10R,11R,13R,15R,15aR)-10-{[(2S,3R,4S,6R)-4-(dimethylamino)-3-hydroxy-6-methyloxan-2-yl]oxy}-4-ethyl-3a,7,9,11,13,15-hexamethyl-1-{2-[(2R)-1-methylpyrrolidin-2-yl]ethyl}-11-{[(2E)-3-(quinolin-3-yl)prop-2-en-1-yl]oxy}-tetradecahydro-1H-oxacyclotetradeca[4,3-d][1,3]oxazole-2,6,8,14-tetrone [Compound 13P] | 0.03 to 0.06 µg/mL | 0.015 to 0.03 µg/mL | 0.5 to 1 µg/mL | 0.12 to 0.25 µg/mL | 0.06 to 0.12 µg/mL | 6.3 µM | lower IC50 inhibition of CYP3A4 inhibition | – | – |
| (3aS,4R,7R,9R,10R,11R,13R,15R,15aR)-10-{[(2S,3R,4S,6R)-4-(dimethylamino)-3-hydroxy-6-methyloxan-2-yl]oxy}-4-ethyl-1-{2-[ethyl(methyl)amino]ethyl}-3a,7,9,11,13,15-hexamethyl-11-{[(2E)-3-(quinolin-3-yl)prop-2-en-1-yl]oxy}-tetradecahydro-1H-oxacyclotetradeca[4,3-d][1,3]oxazole-2,6,8,14-tetrone [Compound 13G] | 0.12 to 0.25 µg/mL | 0.03 to 0.06 µg/mL | 0.5 to 1 µg/mL | 0.5 to 1 µg/mL | 1 to 2 µg/mL | – | lower IC50 inhibition of CYP3A4 inhibition | 8.8 µM | – |
| (3aS,4R,7R,9R,10R,11R,13R,15R,15aR)-1-[2-(diethylamino)ethyl]-10{[(2S,3R,4S,6R)-4-(dimethylamino)-3-hydroxy-6-methyloxan-2-yl]oxy}-4-ethyl-3a,7,9,11,13,15-hexamethyl-11-{[(2E)-3-(quinolin-3-yl)prop-2-en-1-yl]oxy}-tetradecahydro-1H-oxacyclotetradeca[4,3-d][1,3]oxazole-2,6,8,14-tetrone [Compound 13A] | 0.015 to 0.06 µg/mL | 0.008 to 0.015 µg/mL | 0.12 to 0.25 µg/mL | 0.12 to 0.25 µg/mL | 0.12 to 0.25 µg/mL | – | lower IC50 inhibition of CYP3A4 inhibition | 1.2 µM | – |
